For series [1], the system named is MCF7. Kind of series: Antiproliferative activity against human MCF7 cells after 48 hrs by [3H]-thymidine incorporation assay. It is filed as functional, cell-based. A general note: Dividing cells build labelled thymidine or BrdU into new DNA.
Series [2] concerns the target T1, Estrogen receptor (Homo sapiens, UniProt P03372).
T1 sequence (P03372 whole entry): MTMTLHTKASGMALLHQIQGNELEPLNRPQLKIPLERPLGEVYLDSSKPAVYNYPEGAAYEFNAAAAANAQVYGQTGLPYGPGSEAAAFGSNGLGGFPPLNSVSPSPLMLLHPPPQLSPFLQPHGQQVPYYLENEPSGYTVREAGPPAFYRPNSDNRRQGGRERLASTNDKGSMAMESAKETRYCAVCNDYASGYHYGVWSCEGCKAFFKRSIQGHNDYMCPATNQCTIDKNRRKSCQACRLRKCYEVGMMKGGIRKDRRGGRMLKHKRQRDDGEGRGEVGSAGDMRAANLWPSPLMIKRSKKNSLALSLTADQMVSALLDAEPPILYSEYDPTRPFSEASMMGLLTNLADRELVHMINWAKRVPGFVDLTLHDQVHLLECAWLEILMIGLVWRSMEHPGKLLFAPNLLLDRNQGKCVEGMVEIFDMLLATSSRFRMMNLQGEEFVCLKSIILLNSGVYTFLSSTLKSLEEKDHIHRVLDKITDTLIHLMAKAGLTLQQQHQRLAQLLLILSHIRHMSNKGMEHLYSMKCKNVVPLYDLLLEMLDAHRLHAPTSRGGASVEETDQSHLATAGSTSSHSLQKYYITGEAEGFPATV
Kind of series: Displacement of [3H]estradiol from ERalpha after 4 hrs by scintillation counting. In general terms: Loss of bound radioactivity is the signal in a displacement assay; it reports binding, not function.

Series [3] concerns the target T1, Estrogen receptor. Nature of the series: Binding affinity to ERalpha ligand binding domain.
Series [4] in a line: Selectivity ratio of Ki for ERbeta to Ki for ERalpha.
In series [5] the test system is Rattus norvegicus. Kind of series: […] Sprague-Dawley rat assessed as reduction of bone loss by measuring volumetric bone mineral density administered qd after 4 days post ovariectomy measured after 5 weeks. It is filed as functional, organism-based.
Series [6] has as its target Estrogen receptor beta (Homo sapiens, UniProt Q92731). Kind of series: Displacement of [3H]estradiol from ERbeta after 4 hrs by scintillation counting.
The subject of series [7] is Rattus norvegicus. Nature of the series: AUC (0 to 24 hrs) in rat at 10 mg/kg, po. In kind it is ADME, organism-based, Plasma. Also noted: time < 24 hr, dose 10 mg/kg, route oral. The conditions noted are these: in vivo.
Series [8] concerns Rattus norvegicus. Kind of series: Antiestrogenic activity in young Sprague-Dawley rat assessed as inhibition of estrogen-induced uterine hypertrophy at 0.01 to 1 mg/kg, po for 3 days. In kind it is functional, organism-based.
A short description of series [9]: Cmax in rat at 10 mg/kg, po. In kind it is ADME, organism-based. Further details: dose 10 mg/kg, route oral. The note with it: in vivo.

The structures appear in SMILES notation. Activity calls are given as the source filed them. The rule behind the calls is not given here.

Sequence of Estrogen receptor beta (Q92731 whole entry): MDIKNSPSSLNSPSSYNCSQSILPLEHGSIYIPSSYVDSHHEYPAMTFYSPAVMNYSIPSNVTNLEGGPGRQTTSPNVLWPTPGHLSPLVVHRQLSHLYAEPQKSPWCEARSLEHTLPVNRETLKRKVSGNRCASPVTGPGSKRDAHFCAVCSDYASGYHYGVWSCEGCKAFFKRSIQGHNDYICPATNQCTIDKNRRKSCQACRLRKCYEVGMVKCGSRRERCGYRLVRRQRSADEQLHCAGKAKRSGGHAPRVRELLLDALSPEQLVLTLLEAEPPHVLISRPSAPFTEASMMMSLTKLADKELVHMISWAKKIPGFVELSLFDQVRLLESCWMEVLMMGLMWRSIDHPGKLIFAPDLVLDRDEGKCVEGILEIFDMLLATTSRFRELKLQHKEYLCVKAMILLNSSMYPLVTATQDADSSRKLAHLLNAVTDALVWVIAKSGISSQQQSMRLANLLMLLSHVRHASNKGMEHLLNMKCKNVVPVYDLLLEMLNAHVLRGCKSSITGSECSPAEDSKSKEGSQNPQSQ

In general, IC50 refers to the point on the concentration scale where inhibition reaches its midpoint. Higher therefore signals weaker potency in that assay. A word on the Ki: it is a dissociation constant, usually derived from enzyme kinetics or from competition with a known ligand. Low readings indicate a stronger hold on the target, high ones a looser hold on the target. The AUC is concentration integrated over time. Read a low AUC as low exposure. As usually defined, the Cmax is the highest concentration seen after dosing. Turning to `CCCCc1ccc(-c2sc3cc(O)ccc3c2C(=O)c2ccc(OCCN3CCCCC3)cc2)cc1`, the IC50 in series [1] stood at 33 nM. The results for the Ki in series [2], in series [3] and in [6] were 0.25 nM, 0.25 nM and 35 nM, respectively. Further, the Ratio Ki in [4] worked out at 140. In series [5], the Activity result is “Dose-dependent effect”. In addition, in [7], the AUC was determined as 2337 ng·h/mL. Besides, in series [8], the inhibition entry was “Active”. Besides, the peak level in series [9] (Cmax) was 210 ng/mL.

The values above are taken from ChEMBL document CHEMBL2046360, “Hydrophobic Interactions Improve Selectivity to ERα for Ben-zothiophene SERMs” (ACS Med Chem Lett, 2012).
